According to US6017914A, “Benzo[b]thiophene compounds, intermediates, formulations, and methods” (Eli Lilly and Company, priority 1997, dated 2000):

Assays:
[1] = tested on: Serum Cholesterol; assay: Serum cholesterol in ovariectomized rats (Cholesterol Analysis); format: in vivo, female Sprague Dawley rats; details: daily for 4 days
[2] = tested on: uterus; assay: Post-menopausal ovariectomized rat model: wet uterine weight; format: in vivo, female Sprague Dawley rats; details: daily for 4 days

Structure (SMILES)	Serum Cholesterol (% Dec.) versus ovariectomized controls ([1]; 0.1 mg/kg PO)	Serum Cholesterol (% Dec.) versus ovariectomized controls ([1]; 1 mg/kg PO)	Serum Cholesterol (% Dec.) versus ovariectomized controls ([1]; 10 mg/kg PO)	Uterine Wt. (% Inc.) versus the ovariectomized controls ([2]; 0.1 mg/kg PO)	Uterine Wt. (% Inc.) versus the ovariectomized controls ([2]; 1 mg/kg PO)	Uterine Wt. (% Inc.) versus the ovariectomized controls ([2]; 10 mg/kg PO)
CC(C)COC(=O)c1ccc2c(C(=O)c3ccc(OCCN4CCCCC4)cc3)c(-c3ccc(O)cc3)sc2c1 [Example 3]	-2.4%	8.7%	58.0%	11.8%	21.7%	47.1%
Cl.O=C(O)c1ccc2c(C(=O)c3ccc(OCCN4CCCCC4)cc3)c(-c3ccc(O)cc3)sc2c1 [Example 4, [2-(4-Hydroxyphenyl)-6-carboxybenzo[b]thien-3-yl][4-[2-(1-piperidinyl)ethoxy]phenyl]methanone Hydrochloride]	0.6%			18.8%	27.2%	29.6%
CC(=O)c1ccc2c(C(=O)c3ccc(OCCN4CCCCC4)cc3)c(-c3ccc(O)cc3)sc2c1 [Example 5, [2-(4-Hydroxyphenyl)-6-acetylbenzo[b]thien-3-yl][4-[2-(1-piperidinyl)ethoxy]phenyl]methanone]	-6.3%			18.8%	51.8%	69.4%
C#Cc1ccc2c(C(=O)c3ccc(OCCN4CCCCC4)cc3)c(-c3ccc(O)cc3)sc2c1 [Example 6, [2-(4-Hydroxyphenyl)-6-ethynylbenzo[b]thien-3-yl][4-[2-(1-piperidinyl)ethoxy]phenyl]methanone]				14.3%	27.8%	22.5%
CCCCOC(=O)c1ccc2c(C(=O)c3ccc(OCCN4CCCCC4)cc3)c(-c3ccc(O)cc3)sc2c1 [Example 2, [2-(4-Hydroxyphenyl)-6-n-butoxycarbonylbenzo[b]thien-3-yl][4-[2-(1-piperidinyl)ethoxy]phenyl]methanone]	-1.2%			19.4%	16.8%	52.5%
COC(=O)c1ccc2c(C(=O)c3ccc(OCCN4CCCCC4)cc3)c(-c3ccc(O)cc3)sc2c1.Cl [Example 1, [2-(4-Hydroxyphenyl)-6-methoxycarbonylbenzo[b]thien-3-yl][4-[2-(1-piperidinyl)ethoxy]phenyl]methanone Hydrochloride]	-8.6%			46.9%	19.1%	45.2%
